Experimental data from US9943485B2, “Bioactive compounds protection method and compositions containing the same” (priority 2003, dated 2018).

What was measured:
[1] = Effects of dietary insulin in milk replacer on weight gain in bovine neonates; format: in vivo, Friesy and Charole' calves; settings: calves, 600 MicroUnits insulin/cc of liquid milk replacer
Description: 100 Friesy and Charole' calves in ages 12-15 days from birth, were used. Each calf received a milk replacer, of up to 6 liters a day, until the 37th day from birth. From the 37th day, milk replacer quantity was reduced by 0.5 liters every 2 days while simultaneously, pellet quantity increased, until the calf's 57 days old, when it is considered fully weaned. Calves in the experimental group receive 600 MicroUnits/cc. of liquid milk replacer. Calves in the control group receive no insulin at all. Daily growth in grams per each 1 Kg. of birth weight was measured and calculated for each calf.

[2] = Effects of feed formula enriched with encapsulated insulin on lambs' weight gain, disease incidence and death rate; format: in vivo, Assaf specie lambs; settings: one study
Description: More than 1,000 Assaf specie lambs over a period of 12 months at the age of 2-3 days from birth, were used. The growing period was divided into two periods: 3-28 days from birth, during which the lambs were exclusively fed by a milk replacer; and 29-75 days from birth, during which the lambs were fed by post-weaning mix/mash. Lambs in the study groups received between 600 MicroUnits-3,000 MicroUnits of insulin/ml. of milk replacer, and between 1,600 MicroUnits-5,000 MicroUnits of insulin/gr. of mix/mash.
A liquid blend, of 4 Kilograms of Maltodextrin, 40 Liters of Saline 0.9% and 100,000 IU (International Units) of insulin was blended (e.g., 25 IU insulin per 1 g of Maltodextrin). The liquid blend was then freeze-dried. The product of the process was maltodextrin encapsulated insulin. 97% of the bioactive properties of the insulin were maintained after the freeze-drying process. A premix of 10 Kg. was prepared from standard milk powder and the maltodextrin encapsulated insulin. The premix was then blended with 740 Kg. of standard milk replacer product, to generate 750 Kg. of insulin enriched commercial milk replacer.

With insulin the “average daily weight growth in grams per each Kg. of birth weight” value ([1]; at the end of the study period) was 22.47 g/Kg birth weight, the “more weight gained compared with the control group” value ([1]; between day 17 and day 67 after birth) was “up to 26%” and the “lambs survived at marketing” value ([2]; insulin fed group started with 70 newly born lambs, 150 days after birth) was 68 lambs. The death rate ([2]; insulin fed group, 70 lambs, at marketing (150 days after birth)) was 2.8% and the “death rate lower compared with the control group” value ([2]; insulin-fed group 2.8% vs control 11.6% death rate) was 74.8%.
